Experimental data reported in patent EP2486923B1, “Histone deacetylase (HDAC) inhibiting compounds and method of making same” (Dr. Felix Jäger und Dr. Stefan Drinkuth Laborgemeinschaft …, priority 2011, dated 2012).
Read-outs that look alike come from different tables or passages of the source.

Legend:
Experiment in all cases: Two-step fluorescence assay for determination of IC50
Type in all cases: biochemical
HDAC1 = HDAC1 (Homo sapiens, UniProt Q13547)
Description: (§1) In order to evaluate the inhibitory characteristics of example compounds of the invention, IC50 values were determined for such compounds. […] A two-step assay was used for this purpose.
(§2) To obtain the IC50 value for an individual compound/HDAC pair, a two-step assay can be performed based on a fluorescence signal. In principle, an ε-acetylated lysine substrate is deacetylated by histone-deacetylases in the first step. Trypsin releases detectable 7-amino-4-methylcoumarin (ex = excitation wavelength: 390 nm, em = emission wavelength: 460 nm) by cleaving the substrate at the deacetylated lysine in a subsequent reaction^[9]. The enzyme activity is inhibited by a suitable HDACi.
(§3) The obtained data are interpreted using a four parameter fit. Based on this fit, the IC50 value can be estimated. Analysis ot the data and calculation of the IC50 values was accomplished using a four-parameter logistic model protocol as previously described by Vølund^[16]. For nonlinear fits the Levenberg-Marquardt algorithm was applied^[17],[18]. […] Table 1: IC50 values in µM for synthesized compounds of the invention with a perfluorinated linker. […] HDAH = HDAC-like amidohydrolase

HDAC6 = molecular target: T1, HDAC6 (Homo sapiens, UniProt Q9UBN7)
T1 sequence (Q9UBN7 1-1215): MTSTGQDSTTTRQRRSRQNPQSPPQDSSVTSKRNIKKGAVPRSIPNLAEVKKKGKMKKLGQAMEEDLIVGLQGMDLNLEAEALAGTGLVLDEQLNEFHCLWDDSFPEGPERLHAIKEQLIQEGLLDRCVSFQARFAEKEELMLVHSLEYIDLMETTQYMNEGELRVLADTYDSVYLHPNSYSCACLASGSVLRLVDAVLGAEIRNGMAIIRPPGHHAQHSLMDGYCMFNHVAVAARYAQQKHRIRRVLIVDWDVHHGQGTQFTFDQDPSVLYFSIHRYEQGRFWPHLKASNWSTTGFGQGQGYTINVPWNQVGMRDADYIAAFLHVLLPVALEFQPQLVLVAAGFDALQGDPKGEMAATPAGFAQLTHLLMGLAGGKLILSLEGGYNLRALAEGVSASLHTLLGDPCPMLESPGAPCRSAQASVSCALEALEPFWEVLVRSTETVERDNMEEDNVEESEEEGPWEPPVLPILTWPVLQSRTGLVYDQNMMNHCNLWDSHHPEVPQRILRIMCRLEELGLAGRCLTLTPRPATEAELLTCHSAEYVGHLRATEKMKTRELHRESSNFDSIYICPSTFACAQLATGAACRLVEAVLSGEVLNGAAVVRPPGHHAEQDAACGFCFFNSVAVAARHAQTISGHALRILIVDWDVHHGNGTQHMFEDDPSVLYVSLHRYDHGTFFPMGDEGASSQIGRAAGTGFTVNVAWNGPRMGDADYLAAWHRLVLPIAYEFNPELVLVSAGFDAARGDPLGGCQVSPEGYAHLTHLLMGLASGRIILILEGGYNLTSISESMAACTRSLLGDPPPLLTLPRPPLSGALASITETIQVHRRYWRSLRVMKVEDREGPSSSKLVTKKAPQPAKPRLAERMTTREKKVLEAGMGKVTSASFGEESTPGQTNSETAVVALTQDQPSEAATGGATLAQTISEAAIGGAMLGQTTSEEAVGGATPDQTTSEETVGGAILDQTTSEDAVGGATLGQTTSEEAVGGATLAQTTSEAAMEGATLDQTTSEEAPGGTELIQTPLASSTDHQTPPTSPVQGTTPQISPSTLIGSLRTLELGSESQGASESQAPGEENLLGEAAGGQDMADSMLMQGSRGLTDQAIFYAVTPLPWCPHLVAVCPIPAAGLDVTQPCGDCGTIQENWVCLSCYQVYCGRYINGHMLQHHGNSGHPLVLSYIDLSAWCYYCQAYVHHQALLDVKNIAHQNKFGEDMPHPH
Description: as §1, §2, §3

HDAC7 = molecular target: T2, HDAC7 (Homo sapiens, UniProt Q8WUI4)
T2 sequence (Q8WUI4 1-952): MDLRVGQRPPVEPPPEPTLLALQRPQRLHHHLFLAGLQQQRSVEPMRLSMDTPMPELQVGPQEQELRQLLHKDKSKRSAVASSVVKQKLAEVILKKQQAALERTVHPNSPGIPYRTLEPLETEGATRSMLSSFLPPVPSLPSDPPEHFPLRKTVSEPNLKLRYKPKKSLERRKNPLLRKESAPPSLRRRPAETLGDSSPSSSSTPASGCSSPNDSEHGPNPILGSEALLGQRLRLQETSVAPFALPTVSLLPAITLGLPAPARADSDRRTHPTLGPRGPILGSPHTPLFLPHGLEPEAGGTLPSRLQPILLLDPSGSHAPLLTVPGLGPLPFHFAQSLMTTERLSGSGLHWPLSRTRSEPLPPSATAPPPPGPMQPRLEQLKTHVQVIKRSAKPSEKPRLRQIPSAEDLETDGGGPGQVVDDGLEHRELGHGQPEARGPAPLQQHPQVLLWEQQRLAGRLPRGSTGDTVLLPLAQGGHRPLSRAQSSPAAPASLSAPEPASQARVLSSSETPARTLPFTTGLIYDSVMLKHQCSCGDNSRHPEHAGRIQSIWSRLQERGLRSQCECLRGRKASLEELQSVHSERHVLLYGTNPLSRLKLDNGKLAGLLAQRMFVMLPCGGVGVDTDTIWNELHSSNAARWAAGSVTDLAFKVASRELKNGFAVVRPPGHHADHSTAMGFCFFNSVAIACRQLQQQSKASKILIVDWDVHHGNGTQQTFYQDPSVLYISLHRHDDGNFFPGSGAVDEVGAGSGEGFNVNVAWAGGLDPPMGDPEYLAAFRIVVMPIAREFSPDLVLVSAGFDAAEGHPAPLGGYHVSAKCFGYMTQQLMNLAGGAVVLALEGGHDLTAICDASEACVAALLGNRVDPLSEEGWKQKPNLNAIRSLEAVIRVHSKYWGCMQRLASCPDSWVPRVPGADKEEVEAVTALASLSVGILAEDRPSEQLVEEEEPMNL
Description: as §1, §2, §3

HDAC8 = molecular target: T3, HDAC8 (Homo sapiens, UniProt Q9BY41)
T3 sequence (Q9BY41 1-377): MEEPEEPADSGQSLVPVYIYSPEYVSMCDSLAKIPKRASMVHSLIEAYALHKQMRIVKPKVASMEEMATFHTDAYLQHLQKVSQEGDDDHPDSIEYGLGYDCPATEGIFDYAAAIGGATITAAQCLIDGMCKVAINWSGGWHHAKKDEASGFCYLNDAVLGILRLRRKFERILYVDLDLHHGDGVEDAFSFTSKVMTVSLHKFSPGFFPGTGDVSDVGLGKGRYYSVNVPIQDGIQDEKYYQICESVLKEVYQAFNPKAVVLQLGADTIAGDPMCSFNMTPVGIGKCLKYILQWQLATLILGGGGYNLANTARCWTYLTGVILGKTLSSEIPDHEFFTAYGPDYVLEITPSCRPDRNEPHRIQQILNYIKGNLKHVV
Description: as §1, §2, §3

HDAH = molecular target: T4, HDAH (Alcaligenes sp., UniProt Q70I53)
T4 sequence (Q70I53 1-369): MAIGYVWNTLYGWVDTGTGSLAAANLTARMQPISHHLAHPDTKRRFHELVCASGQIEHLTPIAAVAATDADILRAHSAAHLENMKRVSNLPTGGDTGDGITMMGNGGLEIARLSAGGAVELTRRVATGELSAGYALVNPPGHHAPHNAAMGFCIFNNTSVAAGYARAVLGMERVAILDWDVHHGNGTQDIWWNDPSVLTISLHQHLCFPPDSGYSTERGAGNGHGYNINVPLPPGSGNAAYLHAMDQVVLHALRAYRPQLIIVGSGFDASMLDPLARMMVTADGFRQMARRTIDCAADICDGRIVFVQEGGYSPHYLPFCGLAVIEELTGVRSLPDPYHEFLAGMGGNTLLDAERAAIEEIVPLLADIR
Description: as §1, §2, §3

[1] = ε-acetylated lysine substrate, trypsin release of 7-amino-4-methylcoumarin, four parameter fit, read-out: IC50 values HDAC1
[2] = ε-acetylated lysine substrate, trypsin release of 7-amino-4-methylcoumarin, four parameter fit, read-out: IC50 values HDAC6
[3] = ε-acetylated lysine substrate, trypsin release of 7-amino-4-methylcoumarin, four parameter fit, read-out: IC50 values HDAC7
[4] = ε-acetylated lysine substrate, trypsin release of 7-amino-4-methylcoumarin, four parameter fit, read-out: IC50 values HDAC8
[5] = HDAC-like amidohydrolase, ε-acetylated lysine substrate, trypsin release of 7-amino-4-methylcoumarin, four parameter fit, read-out: IC50 values HDAH

Sequence of HDAC1 (Q13547 whole entry): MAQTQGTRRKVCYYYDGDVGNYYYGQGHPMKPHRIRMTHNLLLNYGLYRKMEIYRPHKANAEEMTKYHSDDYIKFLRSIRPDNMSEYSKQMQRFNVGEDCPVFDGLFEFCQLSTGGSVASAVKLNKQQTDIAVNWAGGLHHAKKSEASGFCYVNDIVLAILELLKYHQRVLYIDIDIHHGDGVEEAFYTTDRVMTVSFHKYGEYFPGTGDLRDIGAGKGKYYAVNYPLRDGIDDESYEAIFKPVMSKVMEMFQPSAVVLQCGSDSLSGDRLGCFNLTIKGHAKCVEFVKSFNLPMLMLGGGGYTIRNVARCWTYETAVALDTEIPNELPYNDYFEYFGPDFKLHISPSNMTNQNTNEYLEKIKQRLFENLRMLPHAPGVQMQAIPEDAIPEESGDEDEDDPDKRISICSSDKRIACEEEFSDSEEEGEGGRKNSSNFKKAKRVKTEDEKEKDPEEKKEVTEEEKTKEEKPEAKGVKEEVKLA

Structure (SMILES): O=C(NO)C(F)(F)C(F)(F)C(F)(F)C(F)(F)C(F)(F)C(F)(F)C(=O)Nc1ccc(I)cc1 [LU227, 2,2,3,3,4,4,5,5,6,6,7,7-Dodecafluorooctanedioic acid hydroxyamide (4-iodo-phenyl)amide]
- IC50 (HDAC1; [1]): 16.9 µM
- IC50 (HDAC6; [2]): 5.13 µM
- IC50 (HDAC7; [3]): 6.86 µM
- IC50 (HDAC8; [4]): 75.8 µM
- IC50 (HDAH; [5]): 0.91 µM

Structure (SMILES): O=C(NO)C(F)(F)C(F)(F)C(F)(F)C(F)(F)C(F)(F)C(F)(F)C(=O)Nc1nc(-c2ccccc2)cs1 [LU235, 2,2,3,3,4,4,5,5,6,6,7,7-Dodecafluorooctanedioic acid hydroxyamide (4-phenylthiazol-2-yl)amide]
- IC50 (HDAC1; [1]): 3.31 µM
- IC50 (HDAC6; [2]): 6.47 µM
- IC50 (HDAC7; [3]): 1.77 µM
- IC50 (HDAC8; [4]): 2.1 µM
- IC50 (HDAH; [5]): 5.11 µM

Structure (SMILES): O=C(NO)C(F)(F)C(F)(F)C(F)(F)C(F)(F)C(F)(F)C(F)(F)C(=O)Nc1ccc(-c2ccccc2)cc1 [LU229, 2,2,3,3,4,4,5,5,6,6,7,7-Dodecafluorooctanedioic acid biphenyl-4-ylamide hydroxyamide]
- IC50 (HDAC1; [1]): 37.9 µM
- IC50 (HDAC6; [2]): 59.1 µM
- IC50 (HDAC7): 22 µM
- IC50 (HDAC8; [4]): > 100 µM
- IC50 (HDAH; [5]): 0.78 µM

Structure (SMILES): Cc1ccc(NC(=O)C(F)(F)C(F)(F)C(F)(F)C(F)(F)C(F)(F)C(F)(F)C(=O)NO)cc1C [LU228, 2,2,3,3,4,4,5,5,6,6,7,7-Dodecafluorooctanedioic acid (3,4-dimethylphenyl)-amide hydroxyamide]
- IC50 (HDAC1): 10 µM
- IC50 (HDAC6; [2]): 7.8 µM
- IC50 (HDAC7): 5.51 µM
- IC50 (HDAC8; [4]): 22.8 µM
- IC50 (HDAH; [5]): 0.66 µM

Structure (SMILES): CC(=O)Nc1ccc(NC(=O)C(F)(F)C(F)(F)C(F)(F)C(F)(F)C(F)(F)C(F)(F)C(=O)NO)cc1 [LU224, 2,2,3,3,4,4,5,5,6,6,7,7-Dodecafluorooctanedioic acid (4-acetylaminophenyl)-amide hydroxyamide]
- IC50 (HDAC1; [1]): 21.8 µM
- IC50 (HDAC6; [2]): 10.5 µM
- IC50 (HDAC7; [3]): 21.5 µM
- IC50 (HDAC8; [4]): 76.2 µM
- IC50 (HDAH; [5]): 3.41 µM

Structure (SMILES): O=C(NO)C(F)(F)C(F)(F)C(F)(F)C(F)(F)C(F)(F)C(F)(F)C(=O)Nc1ccccc1 [LU210, 2,2,3,3,4,4,5,5,6,6,7,7-Dodecafluorooctanedioic acid hydroxyamide phenyl-amide]
- IC50 (HDAC1): 17.9 µM
- IC50 (HDAC6; [2]): 12.5 µM
- IC50 (HDAC7): 14.8 µM
- IC50 (HDAH; [5]): 1.67 µM

Structure (SMILES): O=C(NO)C(F)(F)C(F)(F)C(F)(F)C(F)(F)C(F)(F)C(F)(F)C(=O)Nc1ccc(Cl)cc1 [LU223, 2,2,3,3,4,4,5,5,6,6,7,7-Dodecafluorooctanedioic acid (4-chlorophenyl)amide hydroxyamide]
- IC50 (HDAC1; [1]): 15.1 µM
- IC50 (HDAC6): 26.3 µM
- IC50 (HDAC7; [3]): 26.8 µM
- IC50 (HDAC8; [4]): 73 µM
- IC50 (HDAH): 0.72 µM

Structure (SMILES): O=C(NO)C(F)(F)C(F)(F)C(F)(F)C(F)(F)C(F)(F)C(F)(F)C(=O)Nc1ccc(-c2cnnn2-c2ccccc2)cc1 [LU236, 2,2,3,3,4,4,5,5,6,6,7,7-Dodecafluorooctanedioic acid hydroxyamide [4-(1-phenyl-1H-[1,2,3]triazol-5-yl)phenyl]amide]
- IC50 (HDAC1; [1]): 83.1 µM
- IC50 (HDAC6; [2]): 56.6 µM
- IC50 (HDAC7; [3]): 16.4 µM
- IC50 (HDAC8): > 100 µM
- IC50 (HDAH; [5]): 10.4 µM

Structure (SMILES): O=C(NO)C(F)(F)C(F)(F)C(F)(F)C(F)(F)C(F)(F)C(F)(F)C(=O)Nc1ccc2ccc3cccc4ccc1c2c34 [LU234, 2,2,3,3,4,4,5,5,6,6,7,7-Dodecafluorooctanedioic acid hydroxyamide pyren-1-ylamide]
- IC50 (HDAC1; [1]): 28.3 µM
- IC50 (HDAC6; [2]): 20.2 µM
- IC50 (HDAC7; [3]): > 100 µM
- IC50 (HDAC8): 77.8 µM
- IC50 (HDAH; [5]): 1.48 µM

Structure (SMILES): Cc1ccc(NC(=O)C(F)(F)C(F)(F)C(F)(F)C(F)(F)C(F)(F)C(F)(F)C(=O)NO)cc1 [LU222, 2,2,3,3,4,4,5,5,6,6,7,7-Dodecafluorooctanedioic acid hydroxyamide 4-methyl-phenylamide]
- IC50 (HDAC1; [1]): 16.3 µM
- IC50 (HDAC6; [2]): > 100 µM
- IC50 (HDAC7): 84.8 µM
- IC50 (HDAC8): 87.6 µM
- IC50 (HDAH; [5]): 0.86 µM

Structure (SMILES): O=C(NO)C1CCCCC1C(=O)Nc1ccccc1 (centres unmarked) [RK216, reference compound]
- IC50 (HDAC1): > 100 µM
- IC50 (HDAC6): 44 µM
- IC50 (HDAC7): > 100 µM
- IC50 (HDAC8): > 100 µM
- IC50 (HDAH): 34.8 µM

Structure (SMILES): CCc1cccc(NC(=O)C(F)(F)C(F)(F)C(F)(F)C(F)(F)C(F)(F)C(F)(F)C(=O)NO)c1 [LU232, 2,2,3,3,4,4,5,5,6,6,7,7-Dodecafluorooctanedioic acid (3-ethylphenyl)amide hydroxyamide]
- IC50 (HDAC1): 19.9 µM
- IC50 (HDAC6): 1.55 µM
- IC50 (HDAC7; [3]): 4.97 µM
- IC50 (HDAC8; [4]): 21.3 µM
- IC50 (HDAH; [5]): 9.18 µM
